# Results as given in PubChem BioAssay (NCI).
#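 How tested: cells in 96-well plates exposed to compound for 48 hours at five concentrations. The concentration for 50% growth inhibition is given as GI50. TGI is the concentration that stops growth completely.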
# What was measured:
# Experiment in all cases: NCI anticancer screen, dose series, 48 h
# [1] = system: HL-60(TB) leukemia
# [2] = system: 786-0 renal
# [3] = system: IGROV1 ovarian
# [4] = system: PC-3 prostate
# [5] = system: LOX IMVI melanoma
# [6] = system: HOP-62 NSCLC
# [7] = system: RXF 393 renal
# [8] = system: BT-549 breast
# [9] = system: HCC-2998 colon
# [10] = system: DU-145 prostate
# [11] = system: SK-MEL-2 melanoma
# [12] = system: NCI-H460 lung
# [13] = system: HOP-92 NSCLC
# [14] = system: SF-295 CNS
# [15] = system: HS 578T breast
# [16] = system: NCI/ADR-RES ovarian
# [17] = system: M14 melanoma
# [18] = system: SF-268 CNS
# [19] = system: EKVX NSCLC
# [20] = system: MALME-3M melanoma
# [21] = system: SK-MEL-5 melanoma
# [22] = system: A498 renal
# [23] = system: A549 NSCLC
# [24] = system: SK-MEL-28 melanoma
# [25] = system: CAKI-1 renal
# [26] = system: UACC-257 melanoma
# [27] = system: CCRF-CEM leukemia
# [28] = system: MCF7 breast
# [29] = system: COLO 205 colon
# [30] = system: MOLT-4 leukemia
# [31] = system: SW-620 colon
# [32] = system: U251 CNS
# [33] = system: HCT-116 colon
# [34] = system: NCI-H226 lung
# [35] = system: KM12 colon
# [36] = system: OVCAR-3 ovarian
# [37] = system: NCI-H23 lung
# [38] = system: TK-10 renal
# [39] = system: SK-OV-3 ovarian
# [40] = system: OVCAR-4 ovarian
# [41] = system: MDA-MB-435
# [42] = system: UO-31 renal
# [43] = system: OVCAR-8 ovarian
# [44] = system: T-47D breast
# [45] = system: HT29 colon
# [46] = system: SNB-75 CNS
# [47] = system: SR leukemia
# [48] = system: SF-539 CNS
# [49] = system: K-562 leukemia
# [50] = system: MDA-MB-231 breast
# [51] = system: SNB-19 CNS
# [52] = system: RPMI-8226 leukemia
# [53] = system: NCI-H522 lung
# [54] = system: HCT-15 colon
# [55] = system: OVCAR-5 ovarian
# [56] = system: ACHN renal
# [57] = system: UACC-62 melanoma
# [58] = system: SN12C renal
structure (smiles),measurement,setting,value
CCOCCOCCOCCOCCOCCOCCOCCOCCOCCO (tested in a mixture with another compound),GI50,[1],649 nM
same,TGI,[1],1590 nM
same,GI50,[2],2830 nM
same,TGI,[2],14400 nM
same,GI50,[3],3190 nM
same,TGI,[3],15800 nM
same,GI50,[4],1010 nM
same,TGI,[4],6500 nM
same,GI50,[5],810 nM
same,TGI,[5],2900 nM
same,GI50,[6],1070 nM
same,TGI,[6],4450 nM
same,GI50,[7],1850 nM
same,TGI,[7],8880 nM
same,GI50,[8],1290 nM
same,TGI,[8],4750 nM
same,GI50,[9],1650 nM
same,TGI,[9],6250 nM
same,GI50,[10],2600 nM
same,TGI,[10],15200 nM
same,GI50,[11],1200 nM
same,TGI,[11],3810 nM
same,GI50,[12],1200 nM
same,TGI,[12],6820 nM
same,GI50,[13],643 nM
same,TGI,[13],2900 nM
same,GI50,[14],869 nM
same,TGI,[14],4120 nM
same,GI50,[15],1810 nM
same,TGI,[15],9590 nM
same,GI50,[16],3960 nM
same,TGI,[16],> 32500 nM
same,GI50,[17],2020 nM
same,TGI,[17],7080 nM
same,GI50,[18],1610 nM
same,TGI,[18],20800 nM
same,GI50,[19],1260 nM
same,TGI,[19],9620 nM
same,GI50,[20],3650 nM
same,TGI,[20],9230 nM
same,GI50,[21],586 nM
same,TGI,[21],1810 nM
same,GI50,[22],1080 nM
same,TGI,[22],19100 nM
same,GI50,[23],1210 nM
same,TGI,[23],8660 nM
same,GI50,[24],3100 nM
same,TGI,[24],> 32500 nM
same,GI50,[25],1420 nM
same,TGI,[25],18900 nM
same,GI50,[26],739 nM
same,TGI,[26],2730 nM
same,GI50,[27],1060 nM
same,TGI,[27],> 32500 nM
same,GI50,[28],1040 nM
same,TGI,[28],4580 nM
same,GI50,[29],1280 nM
same,TGI,[29],4230 nM
same,GI50,[30],628 nM
same,TGI,[30],1690 nM
same,GI50,[31],1560 nM
same,TGI,[31],8170 nM
same,GI50,[32],987 nM
same,TGI,[32],4470 nM
same,GI50,[33],1010 nM
same,TGI,[33],4680 nM
same,GI50,[34],1220 nM
same,TGI,[34],12500 nM
same,GI50,[35],1200 nM
same,TGI,[35],4670 nM
same,GI50,[36],476 nM
same,TGI,[36],4630 nM
same,GI50,[37],957 nM
same,TGI,[37],5320 nM
same,GI50,[38],1530 nM
same,TGI,[38],12200 nM
same,GI50,[39],3910 nM
same,TGI,[39],13400 nM
same,GI50,[40],717 nM
same,TGI,[40],2840 nM
same,GI50,[41],1450 nM
same,GI50,[42],1580 nM
same,TGI,[42],18700 nM
same,GI50,[43],871 nM
same,TGI,[43],4360 nM
same,GI50,[44],1120 nM
same,TGI,[44],7160 nM
same,GI50,[45],1160 nM
same,TGI,[45],4360 nM
same,GI50,[46],728 nM
same,TGI,[46],5340 nM
O=C1/C(=C/c2ccc(C(F)(F)F)cc2)COc2ccc(O)c(O)c21,GI50,[1],520 nM
same,TGI,[1],3060 nM
same,GI50,[2],1320 nM
same,TGI,[2],2850 nM
same,GI50,[3],476 nM
same,TGI,[3],1840 nM
same,GI50,[5],377 nM
same,TGI,[5],1480 nM
same,GI50,[6],1650 nM
same,TGI,[6],3410 nM
same,GI50,[7],1600 nM
same,TGI,[7],3050 nM
same,GI50,[8],1860 nM
same,TGI,[8],3580 nM
same,GI50,[9],1700 nM
same,TGI,[9],3160 nM
same,GI50,[47],267 nM
same,TGI,[47],2530 nM
same,GI50,[10],1600 nM
same,TGI,[10],3190 nM
same,GI50,[11],1830 nM
same,TGI,[11],3990 nM
same,GI50,[12],1850 nM
same,TGI,[12],3900 nM
same,GI50,[13],1970 nM
same,TGI,[13],6670 nM
same,GI50,[14],3150 nM
same,TGI,[14],8520 nM
same,GI50,[15],2200 nM
same,TGI,[15],6020 nM
same,GI50,[48],1140 nM
same,TGI,[48],2460 nM
same,GI50,[16],1800 nM
same,TGI,[16],6590 nM
same,GI50,[17],1780 nM
same,TGI,[17],4040 nM
same,GI50,[18],1670 nM
same,TGI,[18],3830 nM
same,GI50,[19],1610 nM
same,TGI,[19],2990 nM
same,GI50,[20],1550 nM
same,TGI,[20],3300 nM
same,GI50,[21],1730 nM
same,TGI,[21],3210 nM
same,GI50,[22],2110 nM
same,TGI,[22],4160 nM
same,GI50,[23],1510 nM
same,TGI,[23],3150 nM
same,GI50,[24],1720 nM
same,TGI,[24],3150 nM
same,GI50,[25],1110 nM
same,TGI,[25],2380 nM
same,GI50,[49],289 nM
same,TGI,[49],> 100000 nM
same,GI50,[26],1580 nM
same,TGI,[26],3460 nM
same,GI50,[27],335 nM
same,TGI,[27],2250 nM
same,GI50,[29],1580 nM
same,TGI,[29],3060 nM
same,GI50,[32],703 nM
same,TGI,[32],2050 nM
same,GI50,[50],1180 nM
same,TGI,[50],2650 nM
same,GI50,[51],1480 nM
same,TGI,[51],2870 nM
same,GI50,[33],1350 nM
same,TGI,[33],3120 nM
same,GI50,[34],1590 nM
same,TGI,[34],3090 nM
same,GI50,[52],238 nM
same,TGI,[52],607 nM
same,GI50,[35],1700 nM
same,TGI,[35],3840 nM
same,GI50,[53],216 nM
same,TGI,[53],515 nM
same,GI50,[36],514 nM
same,TGI,[36],1840 nM
same,GI50,[37],1610 nM
same,TGI,[37],3210 nM
same,GI50,[38],1640 nM
same,TGI,[38],3030 nM
same,GI50,[39],2890 nM
same,TGI,[39],10800 nM
same,GI50,[54],444 nM
same,TGI,[54],1930 nM
same,GI50,[40],1390 nM
same,TGI,[40],2720 nM
same,GI50,[55],1600 nM
same,TGI,[55],3090 nM
same,GI50,[41],1260 nM
same,TGI,[41],2680 nM
same,GI50,[56],1110 nM
same,TGI,[56],2310 nM
same,GI50,[42],633 nM
same,TGI,[42],1950 nM
same,GI50,[43],846 nM
same,TGI,[43],2960 nM
same,GI50,[46],1390 nM
same,TGI,[46],3020 nM
same,GI50,[57],1480 nM
same,TGI,[57],2870 nM
same,GI50,[58],1150 nM
same,TGI,[58],2500 nM
